Test results from patent US20260062387A1, “SALT-INDUCIBLE KINASE INHIBITOR COMPOUND AND PHARMACEUTICAL COMPOSITION INCLUDING THE SAME” (MITSUBISHI TANABE PHARMA CORPORATION, priority 2023, published 2026).
Marks after values point to notes of the source that are not given here.

Assays:
GST-tagged SIK2 = GST-tagged SIK2 (Homo sapiens (Human), UniProt Q9H0K1); test: SIK2 inhibition test (ADP-Glo Max Assay); assay type: biochemical; conditions: enzyme 3 nM, AMARA Peptide 200 μM, ATP 1 mM, 2 hours room temperature
Summary of the method: (§1)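 ADP formed was detected by luciferase luminescence after a 2 h room-temperature reaction with 1 mM ATP, 5 mM MgCl2 and AMARA peptide at 200 μM (SIK1, SIK2) or 100 μM (SIK3). Final GST-enzyme levels were 20 nM SIK1, 3 nM SIK2 and 100 nM SIK3. IC50 came from 16-point concentration-response data.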

[1] = test system: TNF-α in serum of LPS-stimulated mice; test: TNF-α increase inhibition test in LPS-stimulated mouse serums; assay type: in vivo, BALB/c mice; conditions: 1 mg/kg oral, LPS intraperitoneal 30 minutes later, serum 1.5 hours later
Method: (§2) The compound of Example 106 was used as the test compound.
Six-week old male BALB/c mice were orally administered with a suspension (10 mL/kg) of a concentration of the test compound in 0.5% methylcellulose (MC) solution. 30 Minutes later, […] of LPS (Sigma Aldrich) was intraperitoneally administered. […] The amount of TNF-α production in the serum was measured using CBA […] TNF Flex Set (BD Bioscience).
The inhibitory ratio (%) was calculated by: % Inhibition={1−(amount of TNF-α production in sample−average amount of TNF-α production without stimulus (MC administered, not LPS-stimulated)/(average amount of TNF-α production in control (MC administered, LPS-stimulated)−average amount of TNF-α production without stimulus (MC administered, not LPS-stimulated))}×100. The results are described in Table 4 below.

GST-tagged SIK1 = GST-tagged SIK1 (Homo sapiens (Human), UniProt P57059); test: SIK1 inhibition test (ADP-Glo Max Assay); assay type: biochemical; conditions: enzyme 20 nM, AMARA Peptide 200 μM, ATP 1 mM, 2 hours room temperature
Summary of the method: as §1

GST-tagged SIK3 = GST-tagged SIK3 (Homo sapiens (Human), UniProt Q9Y2K2); test: SIK3 inhibition test (ADP-Glo Max Assay); assay type: biochemical; conditions: enzyme 100 nM, AMARA Peptide 100 μM, ATP 1 mM, 2 hours room temperature
Summary of the method: as §1

[2] = test system: TNF-α production in LPS-stimulated human monocytes; test: TNF-α production inhibition test in LPS-stimulated human monocytes; assay type: cell-based; conditions: Monocyte, LPS 100 ng/mL, 4 hours
Method: as §2
Cryopreserved mononuclear cells derived from human peripheral blood (LONZA K. K.) were thawed at 37° C., and human monocytes were isolated using CD14 Microfleads (Miltenyi Biotec). The isolated human monocytes were mixed with a culture medium (RPMI 1640, 10% FBS, penicillin, streptomycin), and a DMSO solution of a concentration of the test compound was added. The mixture was incubated at 37° C. for 30 minutes. After the incubation, lipopolysaccharide (LPS; Sigma Aldrich) was added so that the final concentration would be 100 ng/mL. The mixture was incubated at 37° C. for 4 hours. After the incubation, the supernatant was recovered and cryopreserved at −80° C. The cryopreserved supernatant was thawed and the amount of TNF-α production in the supernatant was measured using CBA Human TNF Flex Set (BD Bioscience).
Inhibitory ratio (%) was calculated by: % Inhibition={1−(amount of TNF-α production in sample−amount of TNF-α production without stimulus (DMSO added, not LPS-stimulated))/(amount of TNF-α production in control (DMSO added, LPS-stimulated)−amount of TNF-α production without stimulus (DMSO added, not LPS-stimulated))}×100. The inhibitory concentration IC50was calculated based on 4 data values obtained in the concentration response test.

Sequence of GST-tagged SIK3 (Q9Y2K2 whole entry): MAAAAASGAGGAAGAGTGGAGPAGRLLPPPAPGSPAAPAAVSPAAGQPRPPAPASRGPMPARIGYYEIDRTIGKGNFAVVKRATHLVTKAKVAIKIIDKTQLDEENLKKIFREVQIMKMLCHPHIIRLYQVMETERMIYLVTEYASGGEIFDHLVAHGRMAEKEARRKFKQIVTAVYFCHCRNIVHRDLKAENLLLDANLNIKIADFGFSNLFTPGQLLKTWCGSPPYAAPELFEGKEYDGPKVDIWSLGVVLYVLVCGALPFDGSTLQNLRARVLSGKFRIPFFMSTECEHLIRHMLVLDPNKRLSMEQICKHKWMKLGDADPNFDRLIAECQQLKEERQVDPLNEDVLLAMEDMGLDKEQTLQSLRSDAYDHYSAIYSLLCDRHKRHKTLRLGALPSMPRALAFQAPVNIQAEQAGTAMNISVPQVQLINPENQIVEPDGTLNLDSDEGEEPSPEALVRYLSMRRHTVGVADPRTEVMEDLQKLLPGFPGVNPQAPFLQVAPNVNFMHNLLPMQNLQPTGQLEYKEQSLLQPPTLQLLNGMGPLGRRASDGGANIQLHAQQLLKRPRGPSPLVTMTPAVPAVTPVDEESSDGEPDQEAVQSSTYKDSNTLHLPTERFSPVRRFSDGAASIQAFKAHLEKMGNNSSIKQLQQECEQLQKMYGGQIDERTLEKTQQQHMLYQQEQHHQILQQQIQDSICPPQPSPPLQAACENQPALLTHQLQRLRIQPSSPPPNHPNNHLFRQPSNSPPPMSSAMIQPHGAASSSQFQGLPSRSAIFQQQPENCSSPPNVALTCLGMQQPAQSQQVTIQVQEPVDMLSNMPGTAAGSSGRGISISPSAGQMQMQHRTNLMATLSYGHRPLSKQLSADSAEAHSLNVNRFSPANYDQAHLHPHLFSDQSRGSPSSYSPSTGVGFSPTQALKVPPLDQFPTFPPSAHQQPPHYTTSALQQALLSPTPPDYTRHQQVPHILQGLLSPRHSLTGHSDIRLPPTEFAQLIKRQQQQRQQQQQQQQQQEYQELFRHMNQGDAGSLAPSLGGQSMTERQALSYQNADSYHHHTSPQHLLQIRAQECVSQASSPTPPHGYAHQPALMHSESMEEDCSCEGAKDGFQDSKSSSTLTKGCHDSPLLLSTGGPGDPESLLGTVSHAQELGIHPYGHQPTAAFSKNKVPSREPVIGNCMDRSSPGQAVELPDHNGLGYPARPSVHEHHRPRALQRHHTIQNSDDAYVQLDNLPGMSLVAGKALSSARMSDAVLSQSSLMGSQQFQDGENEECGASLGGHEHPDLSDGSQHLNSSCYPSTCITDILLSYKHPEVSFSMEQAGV
Sequence of GST-tagged SIK2 (Q9H0K1 whole entry): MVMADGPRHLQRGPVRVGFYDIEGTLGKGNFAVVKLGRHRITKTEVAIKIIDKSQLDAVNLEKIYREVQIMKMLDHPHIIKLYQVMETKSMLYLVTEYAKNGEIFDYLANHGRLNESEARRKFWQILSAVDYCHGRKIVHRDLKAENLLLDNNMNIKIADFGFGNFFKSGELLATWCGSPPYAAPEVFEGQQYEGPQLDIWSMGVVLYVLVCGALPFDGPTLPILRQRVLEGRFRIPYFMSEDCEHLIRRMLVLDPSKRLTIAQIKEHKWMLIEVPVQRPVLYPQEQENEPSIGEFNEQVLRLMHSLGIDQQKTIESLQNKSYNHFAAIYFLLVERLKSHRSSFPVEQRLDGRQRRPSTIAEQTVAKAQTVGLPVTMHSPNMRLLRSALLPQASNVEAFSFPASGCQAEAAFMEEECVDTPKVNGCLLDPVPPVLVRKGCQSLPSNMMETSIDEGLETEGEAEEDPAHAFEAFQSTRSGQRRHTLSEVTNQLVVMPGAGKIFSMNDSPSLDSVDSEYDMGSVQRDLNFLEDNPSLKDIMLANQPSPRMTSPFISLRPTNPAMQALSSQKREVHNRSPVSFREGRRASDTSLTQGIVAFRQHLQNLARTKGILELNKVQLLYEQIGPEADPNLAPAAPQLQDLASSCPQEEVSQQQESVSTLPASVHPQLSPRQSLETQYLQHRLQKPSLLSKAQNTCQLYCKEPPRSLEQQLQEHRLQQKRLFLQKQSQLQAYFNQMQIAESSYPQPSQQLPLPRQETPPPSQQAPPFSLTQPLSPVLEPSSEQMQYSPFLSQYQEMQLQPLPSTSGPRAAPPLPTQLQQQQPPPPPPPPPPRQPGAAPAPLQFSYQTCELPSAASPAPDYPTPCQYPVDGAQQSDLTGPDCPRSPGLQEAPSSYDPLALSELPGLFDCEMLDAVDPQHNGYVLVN
Sequence of GST-tagged SIK1 (P57059 whole entry): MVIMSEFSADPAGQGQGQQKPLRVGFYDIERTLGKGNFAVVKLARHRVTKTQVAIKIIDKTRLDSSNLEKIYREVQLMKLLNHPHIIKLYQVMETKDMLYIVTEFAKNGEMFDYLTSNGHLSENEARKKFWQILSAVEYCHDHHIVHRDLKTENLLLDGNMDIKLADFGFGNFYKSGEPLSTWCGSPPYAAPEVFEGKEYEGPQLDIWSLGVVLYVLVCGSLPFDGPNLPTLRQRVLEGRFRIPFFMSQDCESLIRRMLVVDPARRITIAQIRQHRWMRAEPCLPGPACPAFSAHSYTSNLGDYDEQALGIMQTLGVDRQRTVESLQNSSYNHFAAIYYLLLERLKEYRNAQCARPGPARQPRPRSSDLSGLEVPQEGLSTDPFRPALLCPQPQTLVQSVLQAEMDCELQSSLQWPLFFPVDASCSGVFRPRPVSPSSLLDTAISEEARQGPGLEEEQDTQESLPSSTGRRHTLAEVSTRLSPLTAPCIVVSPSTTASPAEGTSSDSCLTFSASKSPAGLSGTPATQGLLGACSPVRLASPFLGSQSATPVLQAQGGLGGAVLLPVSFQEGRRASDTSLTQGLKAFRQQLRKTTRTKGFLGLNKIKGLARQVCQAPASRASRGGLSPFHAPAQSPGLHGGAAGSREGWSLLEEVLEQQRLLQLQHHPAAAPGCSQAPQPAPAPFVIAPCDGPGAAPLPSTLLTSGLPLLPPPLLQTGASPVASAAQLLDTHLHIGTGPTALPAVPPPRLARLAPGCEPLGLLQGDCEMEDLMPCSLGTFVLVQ

Structure (SMILES) | IC50 (GST-tagged SIK2) [nM] | TNF α increase inhibition ratio [1] | IC50 (GST-tagged SIK1) [nM] | IC50 (GST-tagged SIK3) [nM] | IC50 [2] [nM]
CCCn1cc(-c2cc(C#N)c3c(-c4cc(OC)c5c(c4)[C@@H](C)CNC5=O)n(C)nc3c2)cn1 (single isomer, unassigned) [Example 106] | 3.1 | 47.2** % | 8 | 6.8 | 19
COc1cc(-c2c3c(C#N)cc(-c4cnn(CC(F)(F)F)c4)cc3nn2C)cc2c1C(=O)NCC2(C)C [Example 146, 3-(8-methoxy-4,4-dimethyl-1-oxo-2,3-dihydroisoquinolin-6-yl)-2-methyl-6-[1-(2,2,2-trifluoroethyl)pyrazol-4-yl]indazole-4-carbonitrile] | 3.6 |  | 12.6 | 7.8 | 
COc1cc(-c2c3c(C#N)cc(-c4cn[nH]c4)cc3nn2C)cc2c1C(=O)NCC2(C)C [Example 147, 3-(8-methoxy-4,4-dimethyl-1-oxo-2,3-dihydroisoquinolin-6-yl)-2-methyl-6-(1H-pyrazol-4-yl)indazol-4-carbonitrile] | 3.2 |  | 6.3 | 13.4 | 
COc1cc(-c2c3c(C#N)cc(-c4cn[nH]c4)cc3nn2C)cc(OC(F)F)c1C(=O)N[C@@H]1CC1(F)F [Example 148, 4-[4-cyano-2-methyl-6-(1H-pyrazol-4-yl)indazol-3-yl]-N-[(1R)-2,2-difluorocyclopropyl]-2-(difluoromethoxy)-6-methoxybenzamide] | 1.3 |  | 6 | 1.1 | 
COc1cc(-c2c3c(C#N)cc(-c4cc[nH]n4)cc3nn2C)cc(OC(F)F)c1C(=O)N[C@@H]1CC1(F)F [Example 149, 4-[4-cyano-2-methyl-6-(1H-pyrazol-3-yl)indazol-3-yl]-N-[(1R)-2,2-difluorocyclopropyl]-2-(difluoromethoxy)-6-methoxybenzamide] | 1.3 |  | 10.4 | 1.6 | 
COc1cc(-c2c3c(C(F)F)cc(-c4cn[nH]c4)cc3nn2C)cc(OC(F)F)c1C(=O)N[C@@H]1CC1(F)F [Example 150, N-[(1R)-2,2-difluorocyclopropyl]-2-(difluoromethoxy)-4-[4-(difluoromethyl)-2-methyl-6-(1H-pyrazol-4-yl)indazol-3-yl]-6-methoxybenzamide] | 2.4 |  | 10.2 | 1.3 | 
COCCCn1cc(-c2cc(C#N)c3c(-c4cc(OC)c5c(c4)C(C)(C)CNC5=O)n(C)nc3c2)cn1 [Example 151, 3-(8-methoxy-4,4-dimethyl-1-oxo-2,3-dihydroisoquinolin-6-yl)-6-[1-(3-methoxypropyl)pyrazol-4-yl]-2-methylindazole-4-carbonitrile] | 3.5 |  | 9.8 | 14.2 | 
CCOCCn1cc(-c2cc(C#N)c3c(-c4cc(OC)c5c(c4)C(C)(C)CNC5=O)n(C)nc3c2)cn1 [Example 152, 6-[1-(2-ethoxyethyl)pyrazol-4-yl]-3-(8-methoxy-4,4-dimethyl-1-oxo-2,3-dihydroisoquinolin-6-yl)-2-methylindazole-4-carbonitrile] | 3.4 |  | 7.2 | 14.4 | 
COc1cc(-c2c3c(C#N)cc(-c4cnn(C[C@@H](C)O)c4)cc3nn2C)cc(OC(F)F)c1C(=O)N[C@@H]1CC1(F)F [Example 153, 4-[4-cyano-6-[1-[(2R)-2-hydroxypropyl]pyrazol-4-yl]-2-methylindazol-3-yl]-N-[(1R)-2,2-difluorocyclopropyl]-2-(difluoromethoxy)-6-methoxybenzamide] | 1.8 |  | 8.5 | 2.7 | 
COCCn1cc(-c2cc(OC(F)F)c3c(-c4cc(OC)c(C(N)=O)c(OC(F)F)c4)n(C)nc3c2)cn1 [Example 154, 2-(difluoromethoxy)-4-[4-(difluoromethoxy)-6-[1-(2-methoxyethyl)pyrazol-4-yl]-2-methylindazol-3-yl]-6-methoxybenzamide] | 1.2 |  | 7.6 | 9.5 | 
CCn1cc(-c2cc(OC(F)F)c3c(-c4cc(OC)c(C(N)=O)c(OC(F)F)c4)n(C)nc3c2)cn1 [Example 155, 2-(difluoromethoxy)-4-[4-(difluoromethoxy)-6-(1-ethylpyrazol-4-yl)-2-methylindazol-3-yl]-6-methoxybenzamide] | 1.5 |  | 7.4 | 5.5 | 
COc1cc(-c2c3c(OCC(F)F)cc(-c4cnn(C)c4)cc3nn2C)cc(OC(F)F)c1C(N)=O [Example 156, 4-[4-(2,2-difluoroethoxy)-2-methyl-6-(1-methylpyrazol-4-yl)indazol-3-yl]-2-(difluoromethoxy)-6-methoxybenzamide] | 0.7 |  | 4.3 | 2.6 | 
COc1cc(-c2c3c(OCC(F)(F)F)cc(-c4cnn(C)c4)cc3nn2C)cc(OC(F)F)c1C(N)=O [Example 157, 2-(difluoromethoxy)-6-methoxy-4-[2-methyl-6-(1-methylpyrazol-4-yl)-4-(2,2,2-trifluoroethoxy)indazol-3-yl]benzamide] | 1 |  | 5.1 | 7.9 | 
COc1cc(-c2c3c(C(F)F)cc(-c4cnn([C@H]5CCOC5)c4)cc3nn2C)cc(OC(F)F)c1C(N)=O [Example 158, 2-(difluoromethoxy)-4-[4-(difluoromethyl)-2-methyl-6-[1-[(3S)-oxolan-3-yl]pyrazol-4-yl]indazol-3-yl]-6-methoxybenzamide] | 2.2 |  | 11.7 | 3.6 | 
COc1cc(-c2c3c(C(F)F)cc(-c4cnn([C@@H]5CCOC5)c4)cc3nn2C)cc(OC(F)F)c1C(N)=O [Example 159, 2-(difluoromethoxy)-4-[4-(difluoromethyl)-2-methyl-6-[1-[(3R)-oxolan-3-yl]pyrazol-4-yl]indazol-3-yl]-6-methoxybenzamide] | 2.8 |  | 13.8 | 4.6 | 
CC1CNC(=O)c2c(OC(F)F)cc(-c3c4c(C#N)cc(-c5cnn(C)c5)cc4nn3C)cc21 (centres unmarked) [Example 160, 3-[8-(difluoromethoxy)-4-methyl-1-oxo-3,4-dihydro-2H-isoquinolin-6-yl]-2-methyl-6-(1-methylpyrazol-4-yl)indazol-4-carbonitrile] | 1 |  | 7.5 | 3 | 
COc1cc(-c2cnn(C)c2)cc2nn(C)c(-c3cc(OC(F)F)c4c(c3)C(C)CNC4=O)c12 (centres unmarked) [Example 161, 8-(difluoromethoxy)-6-[4-methoxy-2-methyl-6-(1-methylpyrazol-4-yl)indazol-3-yl]-4-methyl-3,4-dihydro-2H-isoquinolin-1-one] | 1.3 |  | 5.6 | 10 | 
Cn1cc(-c2cc(C#N)c3c(-c4cc(OC(F)F)c5c(c4)C(C)(C)CNC5=O)n(C)nc3c2)cn1 [Example 162, 3-[8-(difluoromethoxy)-4,4-dimethyl-1-oxo-2,3-dihydroisoquinolin-6-yl]-2-methyl-6-(1-methylpyrazol-4-yl)indazol-4-carbonitrile] | 2.5 |  | 8.1 | 3.2 | 
